Measurements: patent US7166296B2, “Pharmaceutical formulations and ligands for use therein; mimetics for UEA-1” (Sarlan, Ltd., priority 2001, dated 2007)

Assays:
Design in all cases: species or system human
[1] = tested on: UEA-1 binding sites on Caco-2 cell membrane preparations; assay: Single tier competition assay: inhibition of biotinylated UEA-1 binding, compound and biotinylated UEA-1 incubated together; conditions: library MSI 27; for IC50: read-out: Single Tier Assay IC50
Procedure, shortened: (§1)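 Plates coated with Caco-2 membrane preparation (10 μg/ml, carbonate buffer pH 9.6) and BSA-blocked. Single tier: compound and biotinylated UEA-1 incubated together overnight. Two tier: compound incubated overnight with membranes first, biotinylated UEA-1 added next. Bound UEA-1 detected by streptavidin-HRP/OPD, OD490.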

[2] = tested on: UEA-1 binding sites on Caco-2 cell membrane preparations; assay: Competition assay of biotinylated UEA-1 binding, tier (single/two) not given; conditions: tier not printed, library TPI 1066
Method: The epithelial cell binding ability of compounds and mixtures obtained from synthetic combinatorial libraries was determined by competition assays. These assays were set up to measure the inhibition of binding of biotinylated UEA-1 to membrane preparations of the epithelial cell line Caco-2 (colon carcinoma cells-2), by compounds and mixtures of the combinatorial libraries. This cell line is a conventional model for epithelial cells.
Two competition inhibition assays were used in this case, namely single tier and two tier assays. These assays differed from each other in that in the single tier assay, the mixtures/compounds and the biotinylated UEA-1 were incubated together with the Caco-2 cell membrane preparations, while in case of the two-tier assay, the mixture/compounds were allowed to incubate alone with the cell membranes in the absence of biotinylated UEA-1, which was added in the next step. Addition of the extra step in the two-tier assay was to ensure that the compounds inhibiting the binding of biotinylated UEA-1 to the Caco-2 cell membranes were doing so by themselves binding to surface receptors on the Caco-2 cells and not to the biotinylated UEA-1. Each assay will be described in detail.
• 1. Confluent Caco-2 cell monolayers (grown in 75 cm^2 flasks for up to 1 week at 37° C. and 5% CO2) were washed twice in Dulbecco's PBS (DPBS). • 2. Cell monolayers were treated with 10 mM EDTA-DPBS for 5–10 min at 37° C. and cells were harvested by centrifugation at 1000 rpm for 5 min. • 3. Cells were washed 3 times in DPBS. • 4. […] The cells were homogenised for 30 sec. • 6. The homogenates were centrifuged in hard walled tubes at 40,000 rpm for 45 min at 4° C. • 7. […] The supernatant was removed and stored on ice. The procedure was repeated adding the second supernatant to the first. • 8. The protein concentration was determined using e.g. a Bio-Rad protein assay. • 9. All fractions were stored at −80° C. prior to use. Single Tier Assays: • 1. 96-well microtiter plates were coated with membrane preparations of Caco-2 cells either by allowing them to incubate on the plates for 2½ hours at room temperature or by incubating them overnight at 4° C. 100 μl of 10 μg/ml (in 0.05 M carbonate buffer, pH 9.6) of membrane preparation was added to each well. • 2. The plates were flicked out, patted dry and blocked with bovine serum albumin (BSA)/DPBS (200 μl/well) for 1 to 4 hours at room temperature after which they were washed three times in water. • 3. […] Control wells were also set up in which the Caco-2 cell membrane preparations were incubated with unconjugated UEA-1. […] Following overnight incubation the plates were washed thoroughly (3–6 times). The plates were flicked out, patted dry and biotinylated UEA-1 was detected with commercial Streptavidin conjugated to horseradish peroxidase (HRP) (CalBiochem). […] The plates were left to incubate for an hour at room temperature. • 6. The plates were then washed 3–6 times and the biotin-streptavidin binding was detected by adding an HRP substrate OPD (orthophenyl diamine) to each well. 100 μl/well of this substrate at a final concentration of 1.6 mg/ml was added to each well. Before adding to the wells, this substrate was activated by addition of 50 μl of 3% H2O2 per plate and the reaction was allowed to develop in the dark. • 7. The reaction was stopped by adding 50 μl of 4 N H2SO4 to each well after approximately 5–10 minutes or when sufficient colour had developed. The OD490 (absorbance at 490 nm) of each well was measured using a conventional 96 well plate reading spectrophotometer. Two Tier Assays: • 1. 96 well plates were coated with Caco-2 cell membrane preparations in the same manner as described in the single tier assay. • 2. […] 100 μl at these final concentrations were added to each well. • 4. The plates were then left to incubate overnight, a step that would allow the mixtures and compounds to interact with the Caco-2 cell membranes without the presence of the competitor (biotinylated UEA-1) itself. • 5. […]

[3] = tested on: UEA-1 binding sites on Caco-2 cell membrane preparations; assay: Two tier competition assay: compound incubated alone with membranes, biotinylated UEA-1 added in next step; conditions: library MSI 27; for IC50: read-out: Two Tier Assay IC50
Procedure, shortened: as §1

[4] = 50 μg/ml, first pair of columns
[5] = 50 μg/ml, second pair of columns
[6] = 250 μg/ml, first pair of columns
[7] = 250 μg/ml, second pair of columns

Row | Structure (SMILES) | Single Tier Assay IC50 [1] [µg/mL] | IC50 [1] [µM] | Av % Inhibition [2, 4] [%] | Av % Inhibition [2, 5] [%] | Av % Inhibition [2, 6] [%] | Av % Inhibition [2, 7] [%] | Two Tier Assay IC50 [3] [µg/mL] | IC50 [3] [µM]
1 | O=C(O)c1cc(O)cc(O)c1 [compound 8, 3,5-dihydroxybenzoic acid] | 125.00 | 299 | 59 | 0 | 85 | 50 | 171.90 | 412
2 | COc1ccc(C(=O)O)cc1OC [compound 10, 3,4-Dimethoxybenzoic acid] |  | 711 | −65 | 24 | 41 | 66 | 125.00 | 356
3 | COc1cc(C(=O)O)cc(OC)c1O [compound 25, Syringic acid] |  | 307 | −173 | 65 | 66 | 63 |  | 307
4 | CCOC(=O)c1c(OC)cc(C(=O)O)cc1OC [compound 5, 4-ethoxycarbonyl-3,5-dimethoxybenzoic acid] | 168.10 | 333 | 16 | 39 | 54 | 51 | 130.70 | 259
5 | COc1ccc(C(=O)O)cc1OC [compound 26, 3,4-Dimethoxybenzoic acid] | 125.00 | 163 | −116 | 39 | −2 | 56 | 85.62 | 112
6 | COc1cc(C(=O)O)cc(OC)c1OC [compound 20, 3,4,5-trimethoxybenzoic acid] |  | 212 | −121 | 52 | 24 | 75 |  | 212
7 | O=C(O)c1ccc(O)cc1 [compound 23, 4-Hydroxybenzoic acid] |  | 284 | 52 | 39 | 21 | 59 |  | 284
